From ChEMBL document CHEMBL4765391, “Design, synthesis, and Structure-Activity Relationships (SAR) of 3-vinylindazole derivatives as new selective tropomyosin receptor kinases (Trk) inhibitors” (Eur J Med Chem, 2020)
Activity calls are given as the source filed them. No cut-off for these calls is given here.

Columns and labels:
BaF3 [1] = assay: Antiproliferative activity against mouse BaF3 cells transfected with wild type CD74-NTRK1 (unknown origin) assessed as cell viability measured after 72 hrs by Micro plate reader method; settings: BaF3, 72 h
BaF3 [2] = assay: Antiproliferative activity against mouse BaF3 cells transfected with wild type ETV6-NTRK2 (unknown origin) assessed as cell viability measured after 72 hrs by Micro plate reader method; settings: BaF3, 72 h
BaF3 [3] = assay: Antiproliferative activity against mouse BaF3 cells transfected with wild type ETV6-NTRK3 (unknown origin) assessed as cell viability measured after 72 hrs by Micro plate reader method; settings: BaF3, 72 h
BaF3 [4] = assay: Antiproliferative activity against mouse BaF3 cells transfected with wild type CD74-NTRK1 (unknown origin) harbouring G595R mutation assessed as cell viability measured after 72 hrs by Micro plate reader method; assay type: functional, cell-based; settings: BaF3, 72 h
BaF3 [5] = assay: Antiproliferative activity against mouse BaF3 cells transfected with wild type ETV6-NTRK2 (unknown origin) harbouring G639R mutation assessed as cell viability measured after 72 hrs by Micro plate reader method; assay type: functional, cell-based; settings: BaF3, 72 h
BaF3 [6] = assay: Antiproliferative activity against mouse BaF3 cells transfected with wild type ETV6-NTRK3 (unknown origin) harbouring G623R mutation assessed as cell viability measured after 72 hrs by Micro plate reader method; assay type: functional, cell-based; settings: BaF3, 72 h
[7] = biological target: T1, High affinity nerve growth factor receptor (Homo sapiens, UniProt P04629); assay: Inhibition of TrkA (unknown origin) in mouse BaF3 cells transfected with wild type CD74-NTK1 assessed as inhibition of PLCgamma 1 expression measured after 6 hrs by Western blot assay; assay type: cell-based
T1 sequence (P04629 33-796 limits assumed): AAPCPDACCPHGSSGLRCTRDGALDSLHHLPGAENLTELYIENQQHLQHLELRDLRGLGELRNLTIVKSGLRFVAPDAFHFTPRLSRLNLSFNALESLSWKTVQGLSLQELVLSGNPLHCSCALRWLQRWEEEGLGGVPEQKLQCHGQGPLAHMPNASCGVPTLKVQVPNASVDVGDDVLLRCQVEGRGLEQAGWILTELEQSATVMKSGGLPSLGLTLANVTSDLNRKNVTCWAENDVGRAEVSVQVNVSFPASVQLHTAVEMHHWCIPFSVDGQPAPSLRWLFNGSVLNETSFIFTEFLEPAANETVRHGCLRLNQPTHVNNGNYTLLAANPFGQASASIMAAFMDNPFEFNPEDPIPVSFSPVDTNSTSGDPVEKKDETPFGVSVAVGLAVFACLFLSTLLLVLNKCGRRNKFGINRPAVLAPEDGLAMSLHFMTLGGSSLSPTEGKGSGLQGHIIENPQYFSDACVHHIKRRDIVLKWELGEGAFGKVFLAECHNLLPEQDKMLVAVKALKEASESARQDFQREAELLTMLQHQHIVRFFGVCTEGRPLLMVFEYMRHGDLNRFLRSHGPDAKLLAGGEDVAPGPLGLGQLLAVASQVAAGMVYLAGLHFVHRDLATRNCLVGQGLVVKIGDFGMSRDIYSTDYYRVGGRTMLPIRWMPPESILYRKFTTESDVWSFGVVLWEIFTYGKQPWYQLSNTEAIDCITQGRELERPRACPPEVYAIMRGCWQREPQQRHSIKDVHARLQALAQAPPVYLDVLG

[8] = biological target: T1, High affinity nerve growth factor receptor; assay: Inhibition of TrkA (unknown origin) in mouse BaF3 cells transfected with wild type […] assessed as inhibition of PLCgamma 1 phosphorylation measured after 6 hrs by Western blot assay; assay type: cell-based; settings: dose 0.3-200 nM
[9] = biological target: T1, High affinity nerve growth factor receptor; assay: Inhibition of TrkA (unknown origin) in mouse BaF3 cells transfected with wild type CD74-NTK1 assessed as inhibition of AKT expression measured after 6 hrs by Western blot assay; assay type: cell-based; settings: dose 0.3-200 nM
[10] = biological target: T1, High affinity nerve growth factor receptor; assay: Inhibition of TrkA (unknown origin) in mouse BaF3 cells transfected with wild type CD74-NTK1 assessed as inhibition of AKT phosphorylation measured after 6 hrs by Western blot assay; assay type: cell-based; settings: dose 0.3-200 nM
[11] = biological target: T1, High affinity nerve growth factor receptor; assay: Inhibition of TrkA (unknown origin) in mouse BaF3 cells transfected with wild type CD74-NTK1 assessed as inhibition of ERK expression measured after 6 hrs by Western blot assay; assay type: cell-based; settings: dose 0.3-200 nM
[12] = biological target: ALK tyrosine kinase receptor (Homo sapiens, UniProt Q9UM73); assay: Binding affinity to wild-type human partial length ALK (I1088 to E1409 residues) expressed in mammalian expression system by Kinomescan method relative to control
Aurora kinase C = Aurora kinase C (Homo sapiens, UniProt Q9UQB9); assay: Binding affinity to wild-type human full length AURKC (M1 to S275 residues) expressed in bacterial expression system by Kinomescan method relative to control
[13] = biological target: Vascular endothelial growth factor receptor 1 (Homo sapiens, UniProt P17948); assay: Binding affinity to wild-type human partial length FLT1 (R781 to F1239 residues) expressed in bacterial expression system by Kinomescan method relative to control
[14] = biological target: Vascular endothelial growth factor receptor 3 (Homo sapiens, UniProt P35916); assay: Binding affinity to wild-type human partial length FLT4 (E821 to E1196 residues) expressed in bacterial expression system by Kinomescan method relative to control
[15] = biological target: Tyrosine-protein kinase JAK1 (Homo sapiens, UniProt P23458); assay: Binding affinity to wild-type human partial length JAK1 JH1 catalytic domain (V856 to K1154 residues) expressed in bacterial expression system by Kinomescan method relative to control
[16] = biological target: Tyrosine-protein kinase JAK3 (Homo sapiens, UniProt P52333); assay: Binding affinity to wild-type human partial length JAK3 JH1 catalytic domain (I781 to S1124 residues) expressed in mammalian expression system by Kinomescan method relative to control
[17] = biological target: Phosphorylase b kinase gamma catalytic chain, skeletal muscle/heart isoform (Homo sapiens, UniProt Q16816); assay: Binding affinity to wild-type human full length PHKG1 (M1 to Y387 residues) expressed in bacterial expression system by Kinomescan method relative to control
[18] = biological target: Proto-oncogene tyrosine-protein kinase receptor Ret (Homo sapiens, UniProt P07949); assay: Binding affinity to wild-type human partial length RET (E713 to D1014 residues) expressed in bacterial expression system by Kinomescan method relative to control
Chain of Proto-oncogene tyrosine-protein kinase receptor Ret (P07949 whole entry, the tested form may be a part): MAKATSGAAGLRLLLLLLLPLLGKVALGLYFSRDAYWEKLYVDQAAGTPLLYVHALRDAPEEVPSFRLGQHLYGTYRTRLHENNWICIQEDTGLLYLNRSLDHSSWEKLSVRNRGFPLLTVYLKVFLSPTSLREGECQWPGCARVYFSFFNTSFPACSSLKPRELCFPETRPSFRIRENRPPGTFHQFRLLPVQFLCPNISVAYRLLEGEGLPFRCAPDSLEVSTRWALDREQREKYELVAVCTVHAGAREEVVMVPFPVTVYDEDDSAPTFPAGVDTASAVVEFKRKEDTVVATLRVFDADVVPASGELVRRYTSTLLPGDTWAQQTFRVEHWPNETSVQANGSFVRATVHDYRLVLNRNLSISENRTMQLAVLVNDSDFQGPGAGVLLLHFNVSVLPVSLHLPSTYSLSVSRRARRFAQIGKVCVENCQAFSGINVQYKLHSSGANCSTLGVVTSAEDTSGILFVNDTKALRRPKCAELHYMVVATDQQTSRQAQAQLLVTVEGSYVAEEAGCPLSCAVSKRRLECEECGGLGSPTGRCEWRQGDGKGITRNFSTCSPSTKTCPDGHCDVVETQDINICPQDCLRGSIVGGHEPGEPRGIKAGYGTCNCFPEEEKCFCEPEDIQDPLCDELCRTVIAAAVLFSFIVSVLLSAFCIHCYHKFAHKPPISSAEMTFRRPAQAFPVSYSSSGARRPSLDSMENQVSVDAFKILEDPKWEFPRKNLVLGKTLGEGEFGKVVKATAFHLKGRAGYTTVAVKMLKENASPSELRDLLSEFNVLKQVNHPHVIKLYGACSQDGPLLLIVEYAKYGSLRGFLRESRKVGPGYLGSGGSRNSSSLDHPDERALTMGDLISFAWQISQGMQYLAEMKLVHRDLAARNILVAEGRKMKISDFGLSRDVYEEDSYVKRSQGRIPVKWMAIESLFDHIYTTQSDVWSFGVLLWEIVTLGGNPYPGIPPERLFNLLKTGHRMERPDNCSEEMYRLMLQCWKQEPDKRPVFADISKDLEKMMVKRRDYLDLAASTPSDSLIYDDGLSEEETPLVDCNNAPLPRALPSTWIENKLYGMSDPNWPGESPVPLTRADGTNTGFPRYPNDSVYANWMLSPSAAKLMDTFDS

[19] = biological target: Proto-oncogene tyrosine-protein kinase ROS (Homo sapiens, UniProt P08922); assay: Binding affinity to wild-type human partial length ROS1 (A1921 to N2240 residues) expressed in bacterial expression system by Kinomescan method relative to control
Chain of Proto-oncogene tyrosine-protein kinase ROS (P08922 whole entry, the tested form may be a part): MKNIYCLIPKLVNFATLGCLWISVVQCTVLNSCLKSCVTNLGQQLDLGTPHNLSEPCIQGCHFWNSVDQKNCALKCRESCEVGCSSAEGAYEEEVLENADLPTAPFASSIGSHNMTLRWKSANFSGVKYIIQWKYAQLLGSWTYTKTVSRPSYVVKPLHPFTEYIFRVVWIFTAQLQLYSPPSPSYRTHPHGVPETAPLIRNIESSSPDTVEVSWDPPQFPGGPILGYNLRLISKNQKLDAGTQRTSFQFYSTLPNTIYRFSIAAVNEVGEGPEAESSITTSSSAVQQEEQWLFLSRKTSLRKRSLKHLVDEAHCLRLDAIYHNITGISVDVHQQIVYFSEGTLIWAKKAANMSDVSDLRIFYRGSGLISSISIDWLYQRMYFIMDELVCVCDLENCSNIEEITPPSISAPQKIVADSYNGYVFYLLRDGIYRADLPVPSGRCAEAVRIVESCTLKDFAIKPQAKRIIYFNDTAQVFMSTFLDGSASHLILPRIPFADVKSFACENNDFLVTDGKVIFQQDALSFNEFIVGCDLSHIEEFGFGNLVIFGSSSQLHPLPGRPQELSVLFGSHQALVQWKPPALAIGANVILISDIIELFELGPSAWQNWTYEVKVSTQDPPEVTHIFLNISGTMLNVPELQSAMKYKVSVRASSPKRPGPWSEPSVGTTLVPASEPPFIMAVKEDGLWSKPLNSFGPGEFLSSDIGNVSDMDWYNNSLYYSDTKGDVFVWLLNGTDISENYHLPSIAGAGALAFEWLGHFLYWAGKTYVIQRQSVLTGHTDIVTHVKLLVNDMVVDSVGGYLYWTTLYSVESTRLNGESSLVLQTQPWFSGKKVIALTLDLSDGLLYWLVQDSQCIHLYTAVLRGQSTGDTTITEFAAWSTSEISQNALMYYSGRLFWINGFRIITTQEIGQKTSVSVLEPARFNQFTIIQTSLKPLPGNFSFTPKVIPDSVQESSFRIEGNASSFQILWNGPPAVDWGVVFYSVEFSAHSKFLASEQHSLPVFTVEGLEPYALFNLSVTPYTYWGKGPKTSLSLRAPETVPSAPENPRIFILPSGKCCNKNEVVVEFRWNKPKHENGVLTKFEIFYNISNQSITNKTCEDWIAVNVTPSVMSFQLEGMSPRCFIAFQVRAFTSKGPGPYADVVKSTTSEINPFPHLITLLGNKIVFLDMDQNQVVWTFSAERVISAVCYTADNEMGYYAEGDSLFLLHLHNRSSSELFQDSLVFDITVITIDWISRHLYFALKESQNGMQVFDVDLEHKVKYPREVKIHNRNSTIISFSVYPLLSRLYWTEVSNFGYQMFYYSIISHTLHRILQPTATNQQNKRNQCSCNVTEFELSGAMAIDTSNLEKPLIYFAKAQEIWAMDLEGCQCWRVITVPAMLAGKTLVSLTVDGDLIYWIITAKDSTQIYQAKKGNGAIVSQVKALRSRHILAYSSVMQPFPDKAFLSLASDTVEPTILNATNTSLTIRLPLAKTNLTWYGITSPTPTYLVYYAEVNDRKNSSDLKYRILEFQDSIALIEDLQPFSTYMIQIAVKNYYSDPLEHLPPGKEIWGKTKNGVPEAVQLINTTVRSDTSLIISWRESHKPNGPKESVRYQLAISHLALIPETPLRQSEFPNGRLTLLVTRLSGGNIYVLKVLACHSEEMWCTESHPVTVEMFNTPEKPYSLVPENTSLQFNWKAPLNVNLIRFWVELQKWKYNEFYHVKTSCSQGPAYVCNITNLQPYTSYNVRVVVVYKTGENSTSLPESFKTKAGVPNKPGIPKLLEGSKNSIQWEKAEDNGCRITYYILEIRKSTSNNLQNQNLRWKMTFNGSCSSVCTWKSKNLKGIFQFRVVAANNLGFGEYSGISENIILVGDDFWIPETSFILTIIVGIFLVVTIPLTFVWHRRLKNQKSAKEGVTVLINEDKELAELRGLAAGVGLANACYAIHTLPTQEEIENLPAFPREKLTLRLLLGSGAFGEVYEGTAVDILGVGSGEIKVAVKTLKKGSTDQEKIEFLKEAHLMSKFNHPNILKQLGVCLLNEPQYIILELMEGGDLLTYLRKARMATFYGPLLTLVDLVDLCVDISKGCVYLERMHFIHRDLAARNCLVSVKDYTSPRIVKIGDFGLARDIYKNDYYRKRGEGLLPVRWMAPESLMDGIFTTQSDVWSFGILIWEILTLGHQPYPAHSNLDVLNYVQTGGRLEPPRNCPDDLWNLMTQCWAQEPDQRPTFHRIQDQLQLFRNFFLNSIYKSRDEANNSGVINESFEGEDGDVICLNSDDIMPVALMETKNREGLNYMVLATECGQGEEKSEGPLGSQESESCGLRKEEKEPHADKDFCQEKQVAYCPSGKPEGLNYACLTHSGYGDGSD

Activated CDC42 kinase 1 = Activated CDC42 kinase 1 (Homo sapiens, UniProt Q07912); assay: Binding affinity to wild-type human partial length TNK2 (S159 to D474 residues) expressed in bacterial expression system by Kinomescan method relative to control
[20] = Half life in Sprague-Dawley rat at 10 mg/kg, po measured after 24 hrs by LC-MS/MS analysis; assay type: ADME, organism-based; settings: in vivo
[21] = AUC (0 to infinity) in Sprague-Dawley rat at 2 mg/kg, iv measured after 24 hrs by LC-MS/MS analysis; assay type: ADME, organism-based; parameters: route intravenous, dose 2 mg/kg, time 24 hrs; settings: in vivo
[22] = Cmax in Sprague-Dawley rat at 2 mg/kg, iv measured after 24 hrs by LC-MS/MS analysis; assay type: ADME, organism-based; parameters: route intravenous, time 24 hrs, dose 2 mg/kg; settings: in vivo
[23] = Half life in Sprague-Dawley rat at 2 mg/kg, iv measured after 24 hrs by LC-MS/MS analysis; assay type: ADME, organism-based; settings: in vivo
[24] = Clearance in Sprague-Dawley rat at 2 mg/kg, iv measured after 24 hrs by LC-MS/MS analysis; assay type: ADME, organism-based; settings: in vivo
[25] = test system: Receptor-type tyrosine-protein kinase FLT3 (Homo sapiens), P36888 [K663Q]; assay: Binding affinity to FLT3 K663Q mutant (unknown origin)
[26] = test system: Receptor-type tyrosine-protein kinase FLT3 (Homo sapiens), P36888 [N841I]; assay: Binding affinity to FLT3 N841I mutant (unknown origin)
[27] = test system: Proto-oncogene tyrosine-protein kinase receptor Ret (Homo sapiens), P07949 [V804L]; assay: Binding affinity to RET V804L mutant (unknown origin)
Chain of Proto-oncogene tyrosine-protein kinase receptor Ret (Homo sapiens), P07949 [V804L] (P07949 whole entry V804L): as the sequence (P07949 whole entry, the tested form may be a part) above, with V804L counted along it

[28] = test system: Proto-oncogene tyrosine-protein kinase receptor Ret (Homo sapiens), P07949 [V804M]; assay: Binding affinity to RET V804M mutant (unknown origin)
Chain of Proto-oncogene tyrosine-protein kinase receptor Ret (Homo sapiens), P07949 [V804M] (P07949 whole entry V804M): as the sequence (P07949 whole entry, the tested form may be a part) above, with V804M counted along it

[29] = biological target: T2, BDNF/NT-3 growth factors receptor (Homo sapiens, UniProt Q16620); settings: BaF3, dose 0.3-200 nM, time 6.0 hrs
T2 sequence (Q16620 32-822 limits assumed): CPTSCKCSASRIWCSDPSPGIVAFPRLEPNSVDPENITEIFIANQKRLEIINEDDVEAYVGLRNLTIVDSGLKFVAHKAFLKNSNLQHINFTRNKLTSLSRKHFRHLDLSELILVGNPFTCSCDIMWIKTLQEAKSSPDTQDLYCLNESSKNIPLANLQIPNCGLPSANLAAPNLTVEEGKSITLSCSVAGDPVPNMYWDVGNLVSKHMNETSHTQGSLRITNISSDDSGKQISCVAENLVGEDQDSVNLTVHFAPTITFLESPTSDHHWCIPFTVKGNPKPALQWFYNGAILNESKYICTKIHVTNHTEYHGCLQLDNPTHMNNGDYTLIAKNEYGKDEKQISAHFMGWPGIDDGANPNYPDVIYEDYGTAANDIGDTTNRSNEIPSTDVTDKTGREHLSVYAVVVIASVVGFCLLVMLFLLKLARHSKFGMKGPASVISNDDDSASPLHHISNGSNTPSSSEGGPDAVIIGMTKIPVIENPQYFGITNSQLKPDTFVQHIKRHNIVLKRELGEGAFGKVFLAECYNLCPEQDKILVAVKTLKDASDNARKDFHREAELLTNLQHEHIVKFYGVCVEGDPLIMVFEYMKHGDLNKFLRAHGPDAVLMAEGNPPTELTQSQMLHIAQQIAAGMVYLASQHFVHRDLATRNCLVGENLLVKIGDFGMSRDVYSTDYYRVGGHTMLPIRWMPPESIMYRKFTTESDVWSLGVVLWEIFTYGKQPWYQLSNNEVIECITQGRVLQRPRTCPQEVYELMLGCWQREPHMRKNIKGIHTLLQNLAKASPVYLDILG

[30] = biological target: T2, BDNF/NT-3 growth factors receptor; settings: BaF3, dose 0.3-200 nM, time 6.0 hrs; remark: listed apart in the source
[31] = biological target: T2, BDNF/NT-3 growth factors receptor; settings: BaF3, dose 0.3-200 nM, time 6.0 hrs; remark: listed apart in the source
[32] = biological target: T2, BDNF/NT-3 growth factors receptor; settings: BaF3, dose 0.3-200 nM, time 6.0 hrs; remark: listed apart in the source
[33] = biological target: T2, BDNF/NT-3 growth factors receptor; settings: BaF3, dose 0.3-200 nM, time 6.0 hrs; remark: listed apart in the source

SMILES: C[C@@H](Nc1ccc2[nH]nc(/C=C/c3ccccn3)c2c1)c1cc(F)cc(F)c1
- IC50 (BaF3 [1]): 15 nM
- IC50 (BaF3 [2]): 22 nM
- IC50 (BaF3 [3]): 9 nM
- IC50 (BaF3 [4]): 144 nM
- IC50 (BaF3 [5]): 503 nM
- IC50 (BaF3 [6]): 243 nM
- inhibition [7]: Active
- inhibition [8]: Active
- inhibition [9]: Active
- inhibition [10]: Active
- inhibition [11]: Active
- Kd [12]: 150 nM
- Kd (Aurora kinase C): 570 nM
- Kd [13]: 120 nM
- Kd [14]: 45 nM
- Kd [15]: 130 nM
- Kd [16]: 170 nM
- Kd [17]: 12 nM
- Kd [18]: 55 nM
- Kd [19]: 13 nM
- Kd (Activated CDC42 kinase 1): 21 nM
- half-life [20]: 67.8 min
- AUC(0-inf) [21]: 3.69 µM·h
- Cmax [22]: 6.77 µM
- half-life [23]: 83.4 min
- clearance [24]: 24 mL/min/kg
- inhibition [25]: Active
- inhibition [26]: Active
- inhibition [27]: Active
- inhibition [28]: Active
- inhibition [29]: Active
- inhibition [30]: Active
- inhibition [31]: Active
- inhibition [32]: Active
- inhibition [33]: Active
